The supplement of paper PMC10307832

Experiments:
Assay in all cases: relative viability (nuclei count vs DMSO), 5 days (fraction); higher = more cells survive
[1] = compound: C=CC(=O)N1CCC[C@@H](n2nc(-c3ccc(Oc4ccccc4)cc3)c3c(N)ncnc32)C1 [Ibrutinib] + NC(=O)Nc1cc(-c2cccc(F)c2)sc1C(=O)N[C@H]1CCCNC1 [AZD7762] (partner 0.2 µM)
In short: (§1)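 Nuclei were stained with Hoechst during a one-step fixation (final 0.05% Triton X-100, 1% formaldehyde, 1 ug/ml Hoechst) carried out 5 days after dosing, then counted on 4× images. The cells, lung cancer lines in 1536-well plates, had been dosed by pin tool the day after seeding with one drug alone or a fixed anchor-drug dose plus five library-drug doses (not always all listed) in √10 steps. Relative viability is the nuclei count in treated wells divided by that in vehicle wells, and each value is the median of duplicate plates.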

[2] = compound: C=CC(=O)N1CCC[C@@H](n2nc(-c3ccc(Oc4ccccc4)cc3)c3c(N)ncnc32)C1 [Ibrutinib] + O=C(CCCCCCC(=O)Nc1ccccc1)NO [Vorinostat] (partner 1 µM)
In short: as §1

[3] = compound: C=CC(=O)N1CCC[C@@H](n2nc(-c3ccc(Oc4ccccc4)cc3)c3c(N)ncnc32)C1 [Ibrutinib] + O=C(c1cc(Cc2n[nH]c(=O)c3ccccc23)ccc1F)N1CCN(C(=O)C2CC2)CC1 [Olaparib] (partner 8 µM)
In short: as §1

[4] = compound: C=CC(=O)Nc1cc(-n2c(=O)ccc3cnc4ccc(-c5ccc(NS(C)(=O)=O)cc5)cc4c32)ccc1C [BMX-IN-1] + O=C(CCCCCCC(=O)Nc1ccccc1)NO [Vorinostat] (partner 1 µM)
In short: as §1

Row | Cell Line | relative viability ([1]; first compound 0.005 µM) | relative viability ([1]; first compound 0.01581 µM) | relative viability ([1]; first compound 0.05 µM) | relative viability ([1]; first compound 0.1581 µM) | relative viability ([1]; first compound 0.5 µM) | relative viability ([2]; first compound 0.005 µM) | relative viability ([2]; first compound 0.01581 µM) | relative viability ([2]; first compound 0.1581 µM) | relative viability ([2]; first compound 0.5 µM) | relative viability ([3]; first compound 0.005 µM) | relative viability ([3]; first compound 0.01581 µM) | relative viability ([3]; first compound 0.05 µM) | relative viability ([3]; first compound 0.1581 µM) | relative viability ([3]; first compound 0.5 µM) | relative viability ([4]; first compound 0.02 µM) | relative viability ([4]; first compound 0.2 µM) | relative viability ([4]; first compound 0.6325 µM) | relative viability ([4]; first compound 2 µM) | relative viability ([2]; first compound 0.05 µM)
1 | H3255 | 0.695 | 0.767 | 0.61 | 0.754 | 0.418 | 0.889 | 0.725 | 0.764 | 0.163 | 0.533 | 0.53 | 0.516 | 0.623 | 0.407 | 0.787 | 0.812 | 0.902 | 0.76 | 
2 | NCI-H2087 | 1.77 | 1.19 | 1.04 |  | 1.21 | 0.97 | 0.745 |  | 0.538 | 0.602 | 0.715 | 0.691 |  | 0.724 | 0.66 | 1.12 | 0.837 | 0.575 | 0.385
3 | BEN | 0.473 | 0.61 | 0.637 | 0.506 | 0.697 | 0.513 | 0.609 | 0.538 | 0.501 | 0.984 | 1.11 | 1.09 | 1.11 | 1.2 | 0.621 | 0.517 | 0.585 | 0.535 | 0.599
4 | NCI-H1755 | 0.45 | 0.455 | 0.454 | 0.409 | 0.453 | 0.739 | 0.841 | 0.824 | 0.751 | 0.921 | 0.886 | 0.88 | 0.926 | 0.894 | 0.72 | 0.849 | 0.812 | 0.8 | 0.659
5 | NCI-H1666 | 0.803 | 0.777 | 0.843 | 0.892 | 0.783 | 0.939 | 1.05 | 1.12 | 0.863 | 0.844 | 0.672 | 0.772 | 0.694 | 0.703 | 1.03 | 1.05 | 1.13 | 1.15 | 1.07
6 | NCI-H23 | 0.263 | 0.237 | 0.234 | 0.218 | 0.283 | 0.467 | 0.527 | 0.605 | 0.594 | 0.335 | 0.355 | 0.383 | 0.41 | 0.311 | 0.654 | 0.728 | 0.602 | 0.564 | 0.514
7 | PC-14 | 0.379 | 0.349 | 0.314 | 0.224 | 0.23 | 0.723 | 0.662 | 0.944 | 0.324 | 0.369 | 0.318 | 0.37 | 0.286 | 0.265 | 0.863 | 0.86 | 1.01 | 0.0519 | 0.611
8 | NCI-H2342 | 0.317 | 0.6 | 0.499 | 0.472 | 0.345 | 0.495 | 0.783 | 0.76 | 0.731 | 0.422 | 0.413 | 0.438 | 0.457 | 0.268 | 0.827 | 0.728 | 0.71 | 0.65 | 0.754
9 | LCLC-97TM1 | 0.276 | 0.326 | 0.317 | 0.268 | 0.219 | 0.702 | 0.798 | 0.897 | 0.691 | 0.383 | 0.334 | 0.517 | 0.498 | 0.389 | 0.724 | 1.08 | 1.04 | 0.842 | 0.718
10 | HOP-62 | 0.53 | 0.662 | 0.651 | 0.867 | 0.626 | 0.529 | 0.701 | 0.778 | 0.71 | 0.549 | 0.387 | 0.504 | 0.628 | 0.381 | 0.742 | 0.755 | 0.613 | 0.559 | 0.557
11 | NCI-H727 | 0.404 | 0.664 | 0.524 | 0.416 | 0.555 | 1.11 | 1.18 | 0.808 | 1.12 | 0.736 | 0.817 | 0.659 | 0.792 | 0.688 | 1.11 | 1.3 | 1.29 | 1.2 | 1.26
12 | NCI-H1734 | 0.481 | 0.518 | 0.449 | 0.557 | 0.526 | 0.74 | 0.789 | 0.92 | 0.772 | 0.57 | 0.629 | 0.788 | 0.67 | 0.592 | 0.81 | 0.927 | 0.866 | 0.902 | 0.781
13 | NCI-H1651 | 0.306 | 0.459 | 0.452 | 0.464 | 0.48 | 0.492 | 0.629 | 0.577 | 0.574 | 0.193 | 0.183 | 0.173 | 0.176 | 0.185 | 0.481 | 0.585 | 0.604 | 0.552 | 0.524
14 | NCI-H2170 | 0.699 | 0.695 | 0.655 | 0.769 | 0.182 | 0.703 | 0.656 | 0.831 | 0.181 | 0.568 | 0.502 | 0.433 | 0.607 | 0.156 | 0.724 | 1.06 | 0.79 | 0.849 | 0.396
15 | LK-2 | 0.31 | 0.513 | 0.438 | 0.405 | 0.25 | 0.236 | 0.234 | 0.293 | 0.177 | 0.633 | 0.691 | 0.715 | 0.628 | 0.425 | 0.289 | 0.151 | 0.282 | 0.365 | 0.266
16 | NCI-H522 | 0.847 | 0.698 | 0.683 | 0.766 | 0.751 | 0.848 | 0.764 | 0.808 | 0.815 | 0.587 | 0.605 | 0.653 | 0.644 | 0.573 | 0.979 | 0.786 | 0.832 | 0.968 | 
17 | NCI-H2347 | 0.739 | 0.733 | 0.69 | 0.665 | 0.696 | 0.59 | 0.546 | 0.493 | 0.53 | 0.659 | 0.512 | 0.626 | 0.619 | 0.536 | 0.725 | 0.716 | 0.586 | 0.596 | 0.566
18 | NCI-H460 | 0.634 | 0.563 | 0.646 | 0.622 | 0.659 | 0.855 | 0.667 | 0.794 | 0.781 | 0.405 | 0.373 | 0.441 | 0.432 | 0.441 | 1.05 |  | 1.11 | 0.782 | 0.695
19 | LC-2-ad | 0.905 | 0.801 | 0.861 | 0.786 | 0.599 | 0.74 | 0.665 | 0.802 | 0.775 | 0.802 | 0.719 | 0.859 | 0.741 | 0.739 | 0.74 | 0.766 | 0.674 | 0.783 | 0.706
20 | NCI-H596 | 0.996 | 1.15 | 1.32 |  | 0.928 | 0.468 | 0.628 | 0.57 | 0.572 | 1.09 | 0.635 | 0.68 | 0.668 | 0.723 | 0.685 | 0.84 | 0.67 | 0.666 | 0.501
21 | A-427 | 0.745 | 0.734 | 0.757 |  | 0.706 | 0.883 | 0.875 |  | 0.867 | 0.71 | 0.722 | 0.723 |  | 0.766 | 0.841 | 0.897 | 0.931 | 0.856 | 0.887
22 | HCC-44 | 1.11 |  |  |  | 1.07 | 1.21 |  | 1.2 | 1.15 | 1.06 | 0.965 |  | 1 | 1.07 | 1.16 | 1.14 | 1.19 | 1.12 | 1.2
23 | HCC-827 | 0.157 | 0.193 | 0.323 | 0.167 | 0.12 | 0.916 | 0.943 | 0.875 | 0.861 | 0.699 | 0.667 | 0.568 | 0.681 | 0.216 | 0.485 | 0.872 | 1.11 | 0.798 | 1.06
24 | NCI-H1915 | 0.76 | 0.638 | 0.625 | 0.741 | 0.667 | 0.453 | 0.484 | 0.678 | 0.494 | 0.283 | 0.256 | 0.257 | 0.281 | 0.241 | 0.576 | 0.531 | 0.564 | 0.53 | 0.438
25 | NCI-H322M | 0.432 | 0.527 | 0.514 | 0.486 | 0.502 | 0.74 | 0.915 | 0.571 | 0.802 | 0.766 | 0.768 | 0.775 | 0.725 | 0.659 | 0.872 | 0.983 | 1.01 | 0.876 | 0.79
26 | EKVX | 0.75 | 0.61 | 0.605 | 0.732 | 0.246 | 0.811 | 0.549 | 0.657 | 0.365 | 0.691 | 0.835 | 0.674 | 0.935 | 0.449 | 0.668 | 0.653 | 0.957 | 0.698 | 0.633
27 | EMC-BAC-2 | 1.19 | 1.1 | 1.1 |  | 1.2 | 0.412 | 0.525 |  | 0.453 | 0.505 | 0.52 | 0.56 |  | 0.562 | 0.497 | 0.58 | 0.414 | 0.45 | 
28 | HCC-15 | 1.33 | 1.25 | 1.19 | 1.25 | 1.4 | 0.911 | 0.873 | 0.897 | 0.796 | 0.835 | 0.724 | 0.75 | 0.846 | 0.773 | 0.833 | 0.93 | 0.86 | 0.869 | 0.826
29 | LXF-289 | 1.22 | 1.07 | 1.06 | 1.1 | 1.15 | 0.943 | 0.798 | 0.796 | 0.749 | 1.16 | 0.994 | 1.01 | 1.03 | 1.02 | 0.824 | 0.876 | 0.912 | 0.882 | 0.695
